From patent EP4559923A1, “ANTIHISTAMINE COMPOUND, AND PREPARATION METHOD THEREFOR AND USE THEREOF” (HC Synthetic Pharmaceutical Co., Ltd., priority 2022, dated 2024) come the findings set out here.

In brackets after ≈: the same amount, converted by molar mass.

Series [1] is described as follows: Solubility in water, methanol and isopropanol. The following applies: for solubility Isopropanol: in isopropanol.
Description: The solubility in water, methanol, and isopropanol of the compounds of the present disclosure and the comparative compounds were measured separately.
Series [2] has as its system isolated ileal smooth muscle. As to the kind of experiment: Muscle tone of isolated ileal smooth muscle of guinea pigs, compound alone. Particulars: Table 3, no histamine, X±s, n = 8; for Antispasmodic percentage (%): relative to tone before adding compound, 5 min; for Smooth muscle tone (g) After administration: 5 minutes after adding the drug. The protocol: (§1) The guinea pig was knocked unconscious with a wooden stick, and the abdomen was immediately dissected to separate the ileum about 15 cm in length. The contents of the intestinal segment were flushed with Tyrode's solution and placed in Tyrode's solution at a constant temperature of 37°C for later use, and oxygen was supplied simultaneously. The experimental intestinal tract (1 cm in length) was cut and placed into 20 ml of Tyrode's solution at a constant temperature of 37°C with a continuous oxygen supply. One end of the intestine was fixed on the ventilation hook and the other end was connected to the muscle tone transducer and led to the computer interface. The muscle tone value of the ileal smooth muscle was recorded with a BL system. The experiment was carried out after the intestinal segment contraction became stable.
After the ileum contraction curve stabilized, the tone values before adding the drug were recorded, then the drug or DMSO was added, and the average tone value of the ileum contraction curve at that point was recorded 5 minutes later. The operation was repeated 8 times. The antispasmodic percentage was calculated according to the following formula. Antispasmodic percentage =; (Tone value before adding subject compound−Tone value after adding subject compound)/(Tone value before adding subject compound) × 100% [formula]

The subject of the next series is histamine-induced asthma. As to the kind of experiment: Antiasthmatic effect on histamine-induced asthma in guinea pigs (latency period). The format is in vivo. Particulars: 1 mg/kg oral gavage, sixty minutes after administration; histamine hydrochloride spray; no asthma within 8 minutes counted as 8 minutes; X±s, n = 5. As to the method:
The guinea pigs were placed in a polymethyl methacrylate bell jar and a histamine hydrochloride solution was sprayed ultrasonically (0.8 mg/mL) for 40 seconds. The time point at which the guinea pigs developed asthma was recorded. The time of convulsion and fall was taken as the latency period. Guinea pigs with a latency period exceeding 180 seconds were not selected. […] The guinea pigs were administered by oral gavage at a dose of 2 mL/kg·bw. Sixty minutes after the administration, the guinea pigs were placed in bell jars, and histamine hydrochloride solution was sprayed under the same conditions as in the previous selection. The latency period for the onset of asthma was recorded. […] The results were processed statistically.

A further series relates to histamine. As to the kind of experiment: Muscle tone of isolated ileal smooth muscle of guinea pigs contracted with histamine. Particulars: Table 4; relative to tone after adding histamine; x±s, n = 8; 3 min. The protocol: as §1
(§2) After the ileal peristalsis curve stabilized, the tone values before adding the compound were recorded, and then 0.05 mL of histamine was added. […] The operation was repeated 8 times. The antispasmodic percentage was calculated using the following equation. Antispasmodic percentage; = (Tone value after adding histamine−Tone value after adding subject compound)/(Tone value after adding histamine) × 100% [formula]

Series [3] is described as follows: Accelerated stability test. It counts as physicochemical. The following applies: 40°C ± 2°C, relative humidity 75% ± 5%; for remaining at 730 h / remaining at 1460 h / remaining at 2190 h / remaining at 4380 h: storage 75% relative humidity, read-out: Content.
A short description of series [4]: Muscle tone of isolated ileal smooth muscle of guinea pigs contracted with histamine. Particulars: Table 4; 3 minutes after adding 0.05 mL compound at maximum histamine contraction; x±s, n = 8. The protocol: as §1, §2

In the case of `O=P(O)(O)OCCCN1CCC(=C2c3ccc(Cl)cc3CCc3cccnc32)CC1` [Compound III-7], in series [1], the “solubility Isopropanol” value was determined as 22 mg/mL (≈ 49 mM). Further, the “Antispasmodic percentage (%)” value stood at 29.88±18.88% in series [2] and 65.36±17.20% with histamine. Moreover, the “Post-administration latency period” value in the series on histamine-induced asthma is 382.57 ± 51.11 s.

Turning to `O=P(O)(O)OCCCCCN1CCC(=C2c3ccc(F)cc3CCc3cccnc32)CC1` [Compound III-14], in series [3] (Month 0), the Content is recorded as 99.6%, the Description entry is listed as “White powder” and the Related substances came to 0.03%. Moreover, in series [3] (Month 1), the Description result is recorded as “White powder”, the Related substances is reported as 0.06% and the remaining at 730 h was 99.5%. For the same compound, in series [3] (Month 2), the Description entry is given as “White powder”, the Related substances was determined as 0.11% and the remaining at 1460 h turned out to be 99.5%. Moreover, in series [3] (Month 3), the Description entry is on record as “White powder”, the Related substances was determined as 0.15% and the remaining at 2190 h was determined as 99.5%. For the same compound, in series [3] (Month 6), the Description entry is reported as “White powder”, the Related substances is on record as 0.32% and the remaining at 4380 h is 99.3%. Also, in series [2], the “Smooth muscle tone (g) After administration” value (from here on “Smooth muscle tone”) stood at 1.18 ± 0.28 g and the “Antispasmodic percentage (%)” value stood at 31.79±17.77%. In the series on histamine-induced asthma, the “Post-administration latency period” value was 372.40 ± 50.33 s. Also, the “Smooth muscle tone” value in series [4] is 1.15 ± 0.22 g. Also, the “Antispasmodic percentage (%)” value in the series with histamine stood at 66.07±19.34%.

Consider `O=P(O)(O)OCOCCCCN1CCC(=C2c3ccc(Cl)cc3CCc3cccnc32)CC1` [Compound III-18], for which, in series [3] (Month 0), the Content is given as 99.7%, the Description entry is recorded as “White powder” and the Related substances is 0.03%. Moreover, in series [3] (Month 1), the Description result is given as “White powder”, the Related substances was 0.06% and the remaining at 730 h is 99.6%. For the same compound, in series [3] (Month 2), the Description result is recorded as “White powder”, the Related substances stood at 0.12% and the remaining at 1460 h stood at 99.5%. Further, in series [3] (Month 3), the Description result is “White powder”, the Related substances is given as 0.16% and the remaining at 2190 h amounted to 99.5%. In addition, in series [3] (Month 6), the Description result is “White powder”, the Related substances came to 0.34% and the remaining at 4380 h amounted to 99.4%. Besides, in series [2], the “Smooth muscle tone” value turned out to be 1.13 ± 0.21 g and the “Antispasmodic percentage (%)” value came to 34.30±18.66%. Further, the “Post-administration latency period” value in the series on histamine-induced asthma was determined as 354.29 ± 50.81 s. The “Smooth muscle tone” value in series [4] came to 1.18 ± 0.26 g. Besides, the “Antispasmodic percentage (%)” value in the series with histamine was 65.50±19.34%.

`O=P(O)(O)OCN1CCC(=C2c3ccc(Cl)cc3CCc3cccnc32)CC1` [Compound IV-1]: the “Smooth muscle tone” value in series [2] was 1.18 ± 0.21 g; in series [4], 1.20 ± 0.23 g. Moreover, the “Antispasmodic percentage (%)” value in series [2] is given as 30.99±19.20%; in the series on histamine, 65.12±19.01%. In addition, the “Post-administration latency period” value in the series with histamine-induced asthma came out at 362.39 ± 48.40 s.

Consider `O=P(O)(O)OCCN1CCC(=C2c3ccc(Cl)cc3CCc3cccnc32)CC1` [Compound IV-2], for which, in series [3] (Month 0), the Content is 99.6%, the Description entry is “White powder” and the Related substances is reported as 0.03%. Moreover, in series [3] (Month 1), the Description result is “White powder”, the Related substances is 0.05% and the remaining at 730 h worked out at 99.6%. In series [3] (Month 2), the Description result is given as “White powder”, the Related substances is reported as 0.09% and the remaining at 1460 h came out at 99.5%. Besides, in series [3] (Month 3), the Description entry is “White powder”, the Related substances is given as 0.13% and the remaining at 2190 h is 99.5%. Besides, in series [3] (Month 6), the Description entry is reported as “White powder”, the Related substances is on record as 0.26% and the remaining at 4380 h is 99.4%. For the same compound, in series [2], the “Smooth muscle tone” value is 1.19 ± 0.31 g and the “Antispasmodic percentage (%)” value is 33.14±18.39%. Also, in the series on histamine-induced asthma, the “Post-administration latency period” value is 383.10 ± 50.33 s. Also, the “Smooth muscle tone” value in series [4] was 1.18 ± 0.19 g. Also, in the series with histamine, the “Antispasmodic percentage (%)” value came out at 65.56±19.28%.

Turning to `O=P(O)(O)OCCCN1CCC(=C2c3ccc(Cl)cc3CCc3cccnc32)CC1` [Compound IV-3], in series [1], the “solubility Isopropanol” value stood at 1 mg/mL (≈ 2.23 mM). The “solubility Methanol” value in series [1] (in methanol) stood at 21 mg/mL (≈ 46.8 mM). The compound also registered a solubility in series [1] (water) of 390 mg/mL (≈ 869 mM). The “Antispasmodic percentage (%)” value in series [2] came out at 32.00±19.55%; in the series on histamine, 64.11±19.66%. Besides, the “Post-administration latency period” value in the series with histamine-induced asthma was determined as 375.50 ± 47.99 s.

Take `O=P(O)(O)OCOCCN1CCC(=C2c3ccc(Cl)cc3CCc3cccnc32)CC1` [Compound IV-8]: in series [3] (Month 0), the Content turned out to be 99.6%, the Description result was “White powder” and the Related substances worked out at 0.03%. In series [3] (Month 1), the Description entry is “White powder”, the Related substances worked out at 0.06% and the remaining at 730 h amounted to 99.6%. Besides, in series [3] (Month 2), the Description result is given as “White powder”, the Related substances is on record as 0.09% and the remaining at 1460 h was 99.5%. Also, in series [3] (Month 3), the Description result was “White powder”, the Related substances is 0.14% and the remaining at 2190 h worked out at 99.5%. Besides, in series [3] (Month 6), the Description result was “White powder”, the Related substances is 0.28% and the remaining at 4380 h came out at 99.3%. For the same compound, in series [2], the “Smooth muscle tone” value came out at 1.19 ± 0.29 g and the “Antispasmodic percentage (%)” value was 30.81±18.93%. Also, the “Post-administration latency period” value in the series with histamine-induced asthma stood at 360.12 ± 52.01 s. For the same compound, the “Smooth muscle tone” value in series [4] came to 1.19 ± 0.28 g. Also, the “Antispasmodic percentage (%)” value in the series with histamine stood at 65.50±19.11%.

Take `O=P(O)(O)OCOCCCN1CCC(=C2c3ccc(Cl)cc3CCc3cccnc32)CC1` [Compound IV-9]: in series [3] (Month 0), the Content amounted to 99.7%, the Description entry is reported as “White powder” and the Related substances was 0.03%. Besides, in series [3] (Month 1), the Description entry is “White powder”, the Related substances turned out to be 0.04% and the remaining at 730 h was determined as 99.7%. Also, in series [3] (Month 2), the Description result was “White powder”, the Related substances was 0.05% and the remaining at 1460 h came to 99.7%. For the same compound, in series [3] (Month 3), the Description entry is listed as “White powder”, the Related substances was 0.06% and the remaining at 2190 h is 99.7%. Also, in series [3] (Month 6), the Description result is reported as “White powder”, the Related substances is 0.10% and the remaining at 4380 h stood at 99.6%. In series [2], the “Smooth muscle tone” value was determined as 1.17 ± 0.25 g and the “Antispasmodic percentage (%)” value came out at 32.75±19.48%. In the series on histamine-induced asthma, the “Post-administration latency period” value was 361.82 ± 51.36 s. For the same compound, the “Smooth muscle tone” value in series [4] turned out to be 1.18 ± 0.29 g. The “Antispasmodic percentage (%)” value with histamine turned out to be 65.89±19.76%.

Consider `O=P(O)(O)OCOCCCCN1CCC(=C2c3ccc(Cl)cc3CCc3cccnc32)CC1` [Compound IV-10], for which the “Smooth muscle tone” value worked out at 1.19 ± 0.24 g in series [2] and 1.20 ± 0.27 g in series [4]. Further, the “Antispasmodic percentage (%)” value in series [2] is reported as 30.41±20.04%; with histamine, 65.31±19.57%. The “Post-administration latency period” value in the series on histamine-induced asthma is 365.28 ± 52.09 s.

Take `O=P(O)(O)OCOCCCCCN1CCC(=C2c3ccc(Cl)cc3CCc3cccnc32)CC1` [Compound IV-11]: the “Smooth muscle tone” value was found to be 1.18 ± 0.31 g in series [2] and 1.18 ± 0.28 g in series [4]. Besides, the “Antispasmodic percentage (%)” value in series [2] amounted to 32.57±19.31%; with histamine it was 65.89±19.39%. Moreover, in the series with histamine-induced asthma, the “Post-administration latency period” value is 364.85 ± 51.11 s.

For the compound `Clc1ccc2c(c1)CCc1cccnc1C2=C1CCNCC1` [Desloratadine, desloratadine, reference compound], the “solubility Water” value in series [1] (in water) was “Practically insoluble”.

As usually defined, the solubility is the concentration that dissolves in the medium under given conditions.
